Tests used:
MRSA isolates = conditions: all MRSA isolates; microdilution, CLSI M02 and M07
[1] = system: methicillin-resistant Staphylococcus aureus (MRSA)
Procedure: This retrospective study was conducted between June 2015 and May 2019, and was approved by the Institutional Review Board of Hyogo College of Medicine (No. 3266). […] The analysis of Cmin and the safety population included all eligible patients.

teicoplanin was tested. Which “Teicoplanin MICs” value (MRSA isolates) did it give?
Its value is ≤ 2 µg/mL.

And the “Clinical success at the end of the therapy” value ([1]; all patients of the clinical efficacy population, 55 of 76 patients)?
Its value is 72.4%.

And the “Crude odds ratio (95% CI) for early clinical response” value ([1]; factor: Enhanced high dose loading regimen, univariate analysis)?
Its value is 0.90 (0.31–2.63).

And the “Adjusted odds ratio (95%CI) for early clinical response” value ([1]; human, in vivo)?
Its value is 3.95 (1.25–12.53).
